Reference: ChEMBL document CHEMBL4673263, “Evaluation of PNU-159682 antibody drug conjugates (ADCs)” (Bioorg Med Chem Lett, 2020)

Columns and labels:
HEK-293T = experiment: Cytotoxicity against HEK293T cells assessed as reduction in cell viability; type: cell-based; details: Homo sapiens
MES-SA/Dx5 = experiment: Cytotoxicity against human MES SA/DX5 cells assessed as reduction in cell viability; type: functional, cell-based
MES-SA = experiment: Cytotoxicity against human MES-SA cells assessed as reduction in cell viability; type: functional, cell-based
[1] = Stability of compound in mouse plasma incubated for 7 days; type: ADME, cell-free; details: 168 h, time 7 day
[2] = Stability of the compound in rat plasma incubated for 7 days; type: ADME, cell-free; details: 168 h, time 7 day

COc1cccc2c1C(=O)c1c(O)c3c(c(O)c1C2=O)C[C@@](O)(c1csc(C)n1)C[C@@H]3O[C@H]1C[C@H]2[C@H](O[C@@H]3[C@@H](OC)OCCN32)[C@H](C)O1
EC50 (HEK-293T): 0.012 nM
EC50 (MES-SA/Dx5): 0.0101 nM
EC50 (MES-SA): 0.0116 nM

CNc1nc([C@]2(O)Cc3c(O)c4c(c(O)c3[C@@H](O[C@H]3C[C@H]5[C@H](O[C@@H]6[C@@H](OC)OCCN65)[C@H](C)O3)C2)C(=O)c2c(OC)cccc2C4=O)cs1
EC50 (HEK-293T): 0.052 nM
EC50 (MES-SA/Dx5): 0.125 nM
EC50 (MES-SA): 0.047 nM

COc1cccc2c1C(=O)c1c(O)c3c(c(O)c1C2=O)C[C@@](O)(c1csc(N(C)C(=O)[C@H](C)NC(=O)[C@@H](NC(=O)CN2C(=O)C=CC2=O)C(C)C)n1)C[C@@H]3O[C@H]1C[C@H]2[C@H](OC3[C@@H](OC)OCCN32)[C@H](C)O1 (stereo partly specified)
Stabilty [1]: Stable
Stabilty [2]: Stable

COc1cccc2c1C(=O)c1c(O)c3c(c(O)c1C2=O)C[C@@](O)(c1cnc(C)[nH]1)C[C@@H]3O[C@H]1C[C@H]2[C@H](O[C@@H]3[C@@H](OC)OCCN32)[C@H](C)O1
EC50 (HEK-293T): 0.024 nM
EC50 (MES-SA/Dx5): > 0.3 nM
EC50 (MES-SA): 0.0017 nM

COc1cccc2c1C(=O)c1c(O)c3c(c(O)c1C2=O)C[C@@]1(C[C@@H]3O[C@H]2C[C@H]3[C@H](O[C@@H]4[C@@H](OC)OCCN43)[C@H](C)O2)OC(=O)OCC1=O
EC50 (HEK-293T): 0.00069 nM
EC50 (MES-SA/Dx5): 0.0009 nM
EC50 (MES-SA): 0.0005 nM

COc1cccc2c1C(=O)c1c(O)c3c(c(O)c1C2=O)C[C@@](O)(c1nnc(C)[nH]1)C[C@@H]3O[C@H]1C[C@H]2[C@H](O[C@@H]3[C@@H](OC)OCCN32)[C@H](C)O1
EC50 (HEK-293T): 0.033 nM
EC50 (MES-SA/Dx5): > 15 nM
EC50 (MES-SA): 0.034 nM

COc1cccc2c1C(=O)c1c(O)c3c(c(O)c1C2=O)C[C@@](O)(C(=O)CO)C[C@@H]3O[C@H]1C[C@H]2[C@H](O[C@@H]3[C@@H](OC)OCCN32)[C@H](C)O1
EC50 (HEK-293T): 0.00037 nM
EC50 (MES-SA/Dx5): 0.00038 nM
EC50 (MES-SA): 0.0002 nM

COc1cccc2c1C(=O)c1c(O)c3c(c(O)c1C2=O)C[C@@](O)(c1csc(N)n1)C[C@@H]3O[C@H]1C[C@H]2[C@H](O[C@@H]3[C@@H](OC)OCCN32)[C@H](C)O1
EC50 (HEK-293T): 0.051 nM
EC50 (MES-SA/Dx5): 0.139 nM
EC50 (MES-SA): 0.046 nM

COc1cccc2c1C(=O)c1c(O)c3c(c(O)c1C2=O)C[C@@](O)(c1csc(N(C)C)n1)C[C@@H]3O[C@H]1C[C@H]2[C@H](O[C@@H]3[C@@H](OC)OCCN32)[C@H](C)O1
EC50 (HEK-293T): 0.065 nM
EC50 (MES-SA/Dx5): 0.113 nM
EC50 (MES-SA): 0.07 nM
